Earlier results as cited in patent US10188610B2, “Prolonged-release diphenidol composition” (INVEKRA, S.A.P.I. DE C.V., priority 2013, dated 2019).
Counter-ions that a name gives are not always drawn.

Settings: after oral administration

## OC(CCCN1CCCCC1)(c1ccccc1)c1ccccc1 [Diphenidol hydrochloride, α,α-diphenil-1-piperidinebutanol]
  half life: 4 h
